For assay [1], the system named is ovarian cancer cells. The experiment in a line: MTT assay, combination of PTX and CPT. Type of assay: cell-based. To be noted: 48 hour. The procedure: (§1) Briefly, cells were diluted with culture medium to the seeding density (10^5 cells/mL) and suspended in 96-well tissue culture plates (100 μL/well), and preincubated at 37° C. overnight. Cells were then treated continuously with 10 μL of various concentrations of the anticancer agents to obtain a dose-response curve for each agent. For combination assays, cells were also treated continuously with a total of with 10 μL of various concentrations of PTX and CPT. Each drug concentration was as follows: 6.25-200 ng/mL PTX and 1-50 μg/mL CPT.
(§2) After incubation of 24, 48 and 72 h, 10 μL of MTT solution (5 mg/mL of PBS, filtered) was added to each well and the plates were further incubated for 4 h. 100 μL of extraction buffer (20% w/v SDS dissolved at 37° C. in a solution of 50% Dimethylformamide/50% H2O, 2.5% of 80% Acetic acid 2.5% of 1N HCl (ph 4.7)) was added to solubilize the MTT-formazan product. Absorbance at 570 nm was measured with a microplate reader (SPECTRAmax® PLUS384, Molecular Devices, Sunnyvale Calif.—U.S.A.). Dose response curves were plotted as a percentage of the control cell number, which was obtained from the no-drug exposure sample.
(In general: Tetrazolium assays rely on reduction of a dye to a coloured formazan, in cell work by metabolically active cells.)

The subject of assay [2] is SKOV3 cells. The experiment in a line: Cell proliferation assay (MTT), sustained exposure. Type of assay: cell-based, human. As for the experimental part:
as §1
as §2, with “sample. A semilog scale was used when necessary: IC50 of CPT for SKOV3 and CAOV3.” for “sample.”

Assay [3] has as its system SKOV-3 cells. The experiment in a line: In-vitro cytotoxicity of implant, implant containing PTX and free PTX (MTT). Type of assay: cell-based, human. The procedure: In-vitro cytoxicity of the implant, implant containing PTX and free PTX. The SKOV-3 cells were plated in 6-well plates and cultured in RPMI 1640 supplemented with 1% penicillin/streptomycin solution and 10% fetal bovine serum. The cell line was grown at 37° C. in a humidified incubator equilibrated with 5% CO2. Medium was replaced three times a week and cells were typsinised and subcultured every five days. […] Likewise, PoLi implants of varying sizes were added to the wells. The implants were swelled in 70% ethanol for sterilization purposes prior to incubation with cells. Following a 48 hour incubation period the cell viability was measured using the MTT assay. The MTT dye was added to each well following the specific time period and incubated for 2 hours at 37° C. Cells were then solubilized in 10% SDS. Formazan dye concentrations were then detected using a microplate reader (BioRad) at […] wavelength of 570 nm.

The text below walks through data of patent publication US7901707B2, “Biodegradable biocompatible implant and method of manufacturing same” (priority 2005, dated 2011).

Molecules are shown by their SMILES. Converted amounts (≈) assume the structure as drawn. A value given as a limit tells only on which side of the number the result lay.

Consider `N.N.O=C([O-])C1(C(=O)[O-])CCC1.[Pt+2]` [CPT, carboplatin], for which the “CPT IC50” value in assay [1] (CPT alone) turned out to be 35 µg/mL.
For the molecule `CC(=O)O[C@H]1C(=O)[C@@]2(C)[C@H]([C@H](OC(=O)c3ccccc3)[C@]3(O)C[C@H](OC(=O)[C@H](O)[C@@H](NC(=O)c4ccccc4)c4ccccc4)C(C)=C1C3(C)C)[C@]1(OC(C)=O)CO[C@@H]1C[C@@H]2O` [PTX, paclitaxel], in assay [2], the “decrease in IC50, 24 versus 72 hour time point” value was 10 fold. Further, the reduction in cells in assay [3] (0.050 μg of free PTX, 48 hours) worked out at 64%. This molecule returned a cell reduction in assay [3] (0.2 μg of free PTX, 48 hours) of 73%. For the same molecule, the IC50 in assay [3] (Homo sapiens, SK-OV-3, 48 hours of incubation) was 0.0347 µg/mL (≈ 0.0406 µM); in assay [1] (PTX alone), more than 0.2 µg/mL.

As a reminder, the IC50 is the point on the concentration scale where inhibition reaches its midpoint.
